Measured values published in patent US11352637B2, “Methods and compositions for herbicide tolerance in plants” (MONSANTO TECHNOLOGY LLC, priority 2017, dated 2022).

Assays:
[1] = tested on: KsIAA16R in combination with KsAFB6; test: Yeast two-hybrid (Y2H) assay: KsIAA16R binding with KsAFB6 in presence of auxin; set-up: species or system Kochia scoparia; conditions: for Interaction between KsIAA16R and KsAFB6 in the presence of the auxin: at the concentrations tested; for Ability of KsIAA16R to interact with KsAFB6 in the presence of the auxin: only the higher concentration could facilitate binding
Protocol: (§1) Yeast two-hybrid (Y2H) studies were conducted using the Matchmaker® Gold Yeast Two-Hybrid System: vectors, transformation protocols and yeast strains (Clonetech Laboratories, Inc.). The coding sequences for the KsIAA16R (SEQ ID NO: 220), KsIAA16S (SEQ ID NO: 218), KsTIR1 (SEQ ID NO: 285), KsAFB6 (SEQ ID NO: 287), KsAFB2 (SEQ ID NO: 289), and KsAFB5 (SEQ ID NO: 291) were PCR amplified using primers specified in Table 2.
(§2) PCR products were gel purified and recombined into NdeI/NotI digested pGADT7 or pGBKT7 vectors using the In-Fusion® cloning system (Clonetech Laboratories, Inc.). The pGBKT7 vector contained the GAL4 DNA binding domain, rendering the fusions as the “bait,” whereas the “prey” were the fusions containing the pGADT7 vector, which contained the GAL4 activation domain. All vectors were first sequence verified and then the listed vector combinations were co-transformed into the yeast strain, Y2HGold. […] Transformants were plated on SC-Trp-Leu plates to select for those containing both plasmids. Four healthy colonies were selected at random and resuspended into 300 μL of 0.1% agar in water. Five μL of this dilution was replica spotted onto each plate. Plates were incubated at 30° C. for 3 days prior to evaluation of colony growth.
(§3) This method enabled the study of the binding/interaction of the Kochia R and S alleles of KsIAA16 with each of the Kochia TIR/AFB homologs (KsTIR1 (SEQ ID NO: 285), and KsAFB6 (SEQ ID NO: 287)) in the absence or presence of 100 μM or 500 μM exogenous concentrations of IAA, NAA, dicamba, and 2,4-D, picloram, triclopyr, quinclorac, fluroxypyr or phenylacetic acid (PAA).

[2] = tested on: KsIAA16R in combination with KsTIR1; test: Yeast two-hybrid (Y2H) assay: KsIAA16R binding with KsTIR1 in presence of auxin; set-up: species or system Kochia scoparia; conditions: compared with KsIAA16S; concentration not given
Protocol: as §1
(§4) PCR products were gel purified and recombined into NdeI/NotI digested pGADT7 or pGBKT7 vectors using the In-Fusion® cloning system (Clonetech Laboratories, Inc.). The pGBKT7 vector contained the GAL4 DNA binding domain, rendering the fusions as the “bait,” whereas the “prey” were the fusions containing the pGADT7 vector, which contained the GAL4 activation domain. All vectors were first sequence verified and then the listed vector combinations were co-transformed into the yeast strain, Y2HGold. […] Transformants were plated on SC-Trp-Leu plates to select for those containing both plasmids. Four healthy colonies were selected at random and resuspended into 300 μL of 0.1% agar in water. Five μL of this dilution was replica spotted onto each plate. Plates were incubated at 30° C. for 3 days prior to evaluation of colony growth. […]

[3] = tested on: KsIAA16 (R and S alleles) with KsTIR1 and/or KsAFB6; test: Y2H assay, summary statements over the protein combinations tested; type: binding, Kochia scoparia; conditions: for Facilitation of interaction of KsIAA16R with KsTIR1 and/or KsAFB6: at the concentrations tested; for Y2H interaction in the presence of the auxin: any of the protein combinations tested
Protocol: as §1, §2, §3

R and S Kochia biotypes = test: Greenhouse spray test for cross-resistance of Kochia R-biotype; type: in vivo, Kochia scoparia; conditions: all treatments, track sprayer, 10 to 15 cm tall plants
From the text: To elucidate whether the Kochia R-biotype is cross resistant to 2,4-D or fluroxypyr, greenhouse grown 10 to 15 cm tall Kochia plants were sprayed with either Dicamba at 0,140, 280, 560, 2240, 4480, 6720, 8960, or 17920 g a.e.ha^−1; 2,4-D at 0, 70, 140, 280, 560, 1120, 2240, 4480, 6720, 8960 g a.e.ha^−1 or fluroxypyr at 0, 17.5, 35, 70, 140, 280, 420, 560, 1120, 2240 g a.e.ha^−1 with a track sprayer. […]

[4] = tested on: seedlings of the R and S Kochia biotypes; test: Root elongation response of Kochia seedlings; type: in vivo, Kochia scoparia; conditions: for Root elongation inhibition of the R Kochia biotype: R biotype seedlings, FIG. 5
Protocol: The root elongation response of seedlings from the R and S Kochia biotypes was tested to determine if the R biotype response was consistent with the Y2H findings. For root elongation studies, plant nutrient media was used, with 0.5% sucrose. Seeds were surface sterilized in 30% bleach with 0.1% Triton-X100 for 10 to 30 minutes, then rinsed twice in sterile water and resuspended in 0.1% agar for plating. Root lengths were measured to the nearest millimeter, and the average root length of 12 individuals was calculated unless otherwise noted.

[5] = tested on: transgenic Arabidopsis carrying AtIAA16P:KsIAA16 constructs; test: Root elongation inhibition assay of T2 transgenic Arabidopsis on plant nutrient plus IAA or dicamba; type: in vivo, Arabidopsis thaliana
From the text: To determine if the presence of the KsIAA16R allele alone was necessary and sufficient to confer dicamba resistance, several transgene expression constructs were generated for study of KsIAA16 in Arabidopsis. Agrobacterium tumefaciens was used to introduce the binary vectors in the plants using the floral dip method (Clough and Bent, 1998). Vectors contained either the ethanol inducible alcA promoter elements (Salter et al., 1998), the constitutive CaMV35S promoter, or the native Arabidopsis IAA16 promoter (AtIAA16P) driving either KsIAA16R (SEQ ID NO: 220) or KsIAA16S (SEQ ID NO: 218). GUS reporter constructs contained a 2.5 kb genomic DNA fragment from directly upstream of KsIAA16, which is expected to contain most of the promoter elements as well as the 5′UTR, driving uidA. All constructs contained either a Spectinomycin resistance gene (SPEC) or a glufosinate resistance gene (BAR) in the T-DNA region to serve as the selectable marker. For all constructs, T1 seed was harvested, surface sterilized, and plated on the appropriate selective media to identify independent T1 transformants. Single seed decent and segregation on selective media was used to estimate transgene insertion number and identify homozygous lines. For induction of the P-Alc promoter, ethanol was added to a final concentration of 0.01% just before plates were poured, and plates were used immediately. All plates were grown in a Percival growth chamber (Percival Scientific, Inc.) at 22° C. with 16 hour day/8 hour night light cycle and a light intensity of […]. Relative humidity was maintained at 50%. GUS assays were performed according to standard protocols. Briefly, a 20 mg/mL X-Gluc (GoldBio, St. Louis, Mo.) stock in dimethylformamide was diluted into 50 mM phosphate buffer, pH 7.0, to a final concentration of 1 mg/mL. This solution was added to plant tissues, and samples were placed under vacuum for 5 minutes to ensure penetration of the solution into the tissues. Samples were covered in foil to prevent light entry and place at 37° C. for 24 hours to allow color development. Staining solution was removed and chlorophyll was cleared by incubating samples in 50% ethanol for several hours.

[6] = tested on: KsIAA16S in combination with KsAFB6; test: Yeast two-hybrid (Y2H) assay: KsIAA16S binding with KsAFB6 in presence of auxin; set-up: species or system Kochia scoparia; conditions: allele KsIAA16S; auxin 500 μM; yeast colony growth
Protocol: as §1, §4

`O=C(O)COc1ccc(Cl)cc1Cl` [2,4-D, 2,4-dichlorophenoxyacetic acid] was tested. Which “Interaction between KsIAA16R and KsAFB6 in the presence of the auxin” value [1] did it give?
The value was “not observed”.

What about the “Ability of KsIAA16R to interact with KsTIR1 in the presence of the auxin” value [2] of the same molecule?
Its value is “decreased ability to interact”.

And the “Facilitation of interaction of KsIAA16R with KsTIR1 and/or KsAFB6” value (shortened to “Facilitation of interaction of KsIAA16R”) [3]?
The value was “cannot”.

What about the “Visible injury at 14 days after treatment (DAT)” value (R and S Kochia biotypes) of the same molecule?
Its value is “observed”.

What about the “Root elongation inhibition of the R Kochia biotype” value [4] of the same molecule?
The value was “resistant”.

Which “Y2H interaction in the presence of the auxin” value [3] does the source give for `Nc1c(Cl)c(F)nc(OCC(=O)O)c1Cl` [Fluroxypyr, 4-amino-3,5-dichloro-6-fluoro-2-pyridyloxyacetic acid] here?
Its value is “No interaction”.

And the “Facilitation of interaction of KsIAA16R” value [3]?
The value was “cannot”.

What about the “Visible injury at 14 days after treatment (DAT)” value (R and S Kochia biotypes) of the same molecule?
Its value is “observed”.

How did the “Ability of KsIAA16R to interact with KsAFB6 in the presence of the auxin” value [1] turn out when `O=C(O)Cc1c[nH]c2ccccc12` [IAA, indole-3-acetic acid] was run?
Its value is “reduced ability to interact”.

What about the “Root Length (in mm) of T2 transgenics on plant nutrient plus auxin” value (from here on “Root Length (in mm) of T2 transgenics”) ([5]; line AtIAA16P:KsIAA16R_T2-1, +5 μM auxin) of the same molecule?
Its value is 12.17 ± 1.01 mm.

What about the “Root Length (in mm) of T2 transgenics” value ([5]; line AtIAA16P:KsIAA16R_T2-2, +5 μM auxin) of the same molecule?
Its value is 18.17 ± 3.09 mm.

What about the “Root Length (in mm) of T2 transgenics” value ([5]; line AtIAA16P:KsIAA16R_T2-3, +5 μM auxin) of the same molecule?
Its value is 22.75 ± 2.09 mm.

And the “Root Length (in mm) of T2 transgenics” value ([5]; line AtIAA16P:KsIAA16R_T2-4, +5 μM auxin)?
Its value is 27.25 ± 1.88 mm.

And the “Root Length (in mm) of T2 transgenics” value ([5]; line AtIAA16P:KsIAA16S_T2-1, +5 μM auxin)?
The value was 7.0 ± 0.77 mm.

What about the “Root Length (in mm) of T2 transgenics” value ([5]; line AtIAA16P:KsIAA16S_T2-2, +5 μM auxin) of the same molecule?
Its value is 9.5 ± 0.84 mm.

And the “Root Length (in mm) of T2 transgenics” value ([5]; line AtIAA16P:KsIAA16S_T2-3, +5 μM auxin)?
Its value is 5.67 ± 0.54 mm.

And the “Root Length (in mm) of T2 transgenics” value ([5]; line AtIAA16P:KsIAA16S_T2-4, +5 μM auxin)?
The value was 5 ± 0.34 mm.

What about the “Root Length (in mm) on plant nutrient plus auxin” value ([5]; non-transgenic WT, +5 μM auxin) of the same molecule?
Its value is 5.83 ± 0.24 mm.

And the “Resistance to root inhibition” value ([5]; several lines from both constructs)?
Its value is “slight resistance”.

What about the “Facilitation of interaction of KsIAA16R” value [3] of the same molecule?
Its value is “can facilitate some interaction”.

And the “Root elongation inhibition of the R Kochia biotype” value [4]?
The value was “remained sensitive”.

What does the source list for `O=C(O)Cc1cccc2ccccc12` [NAA, 2-(1-naphthyl) acetic acid]?
Ability of KsIAA16R to interact with KsAFB6 in the presence of the auxin [1]: reduced ability to interact; Facilitation of interaction of KsIAA16R with KsTIR1 and/or KsAFB6 [3]: can facilitate some interaction; Root elongation inhibition of the R Kochia biotype [4]: remained sensitive

`O=C(O)Cc1ccccc1` [PAA, phenylacetic acid] was tested. Which “Y2H interaction in the presence of the auxin” value [3] did it give?
Its value is “No interaction”.

What about the “Effect on root elongation” value ([4]; Kochia seedlings, biotype not stated) of the same molecule?
Its value is “had an effect on root elongation”.

What does the source list for `Nc1c(Cl)c(Cl)nc(C(=O)O)c1Cl` [Picloram, 4-amino-3,5,6-trichloro-2-pyridinecarboxylic acid]?
Interaction between KsIAA16R and KsAFB6 in the presence of the auxin [1]: not observed; Facilitation of interaction of KsIAA16R with KsTIR1 and/or KsAFB6 [3]: cannot; Ability to bind in combination with KsAFB6 [6]: observed to interact

Which “Interaction between KsIAA16R and KsAFB6 in the presence of the auxin” value [1] does the source give for `O=C(O)c1c(Cl)ccc2cc(Cl)cnc12` [Quinclorac, 3,7-dichloro-8-quinolinecarboxylic acid] here?
Its value is “not observed”.

And the “Facilitation of interaction of KsIAA16R” value [3]?
The value was “cannot”.

And the “Ability to bind in combination with KsAFB6” value [6]?
The value was “observed to interact”.
